Reference: US6410516B1

Legend:
70Z/3 cells = conditions: 10 μg/mo cycloheximide; cited from earlier work
NF-κB = assay: GTP stimulation of NF-κB complex formation in the binding assay; format: biochemical; conditions: GTP 3 mM added to the binding assay; virus-induced extracts
NF-KB in 70Z/3 cells = assay: TPA stimulation, subcellular fractions of 70Z/3 cells (mobility shift assay); format: cell-based, mouse; conditions: TPA-stimulated cells; fractions treated with formamide and DOC; densitometric scanning
Description: Nuclear extracts, cytosolic and postnuclear membrane fractions were analyzed at equal amounts of protein in an electrophoretic mobility shift assay, described in Example 1, followed by fluorography.
To examine whether the form of NF-kB detected after in vitro activation in the cytosolic fraction could quantitatively account for the NF-kB found in nuclear extracts after TPA stimulation of cells, subcellular fractions of 70Z/3 cells were reinvestigated in mobility shift assays after treatment with formamide and DOC using equal cell-equivalents of subcellular fractions. Equal cell-equivalents of nuclear extracts (N) and cytosolic (C) and post-nuclear membrane fractions (P) from control (Co) and TPA-stimulated cells (TPA) were left untreated (lanes 1-6 and 13-18) or subjected to a formamide/desoxycholate treatment (Fa+DOC; lanes 7-12 and 19-24; for conditions see FIG. 31, lane 11). This treatment was preferred over the DOC/NP-40 chase treatment because it gave a higher resolution of bands in mobility shift assays. DNA-binding reactions were performed in the presence of 3.2 ug poly(d[I-C]) using 4.4 ug of protein from nuclear extracts, 8.8 ug of protein from cytosolic fractions or 2.2 ug of protein from postnuclear membrane fractions (all in 4 ul buffer D(+)). Fluorograms of native gels are shown. […]

AP-1 in HeLa cells = assay: TPA stimulation, AP-1 DNA-binding activity in HeLa subcellular fractions; format: cell-based, human
From the text: FIG. 28 represents analysis of subcellular fractions for DNA-binding activity of the TPA-inducible transcription factor AP-1. Equal cell-equivalents of nuclear extracts (N) and cytosolic fractions (C) from 70Z/3 and HeLa cells were used in mobility shift assays. AP-1 specific DNA-binding activity was detected using an end-labeled EcoRI-HindIII fragment from the yeast HIS 4 promoter containing three binding sites for GCN4 recognized by mammalian AP-1. The three protein-DNA complexes seen on shorter exposures of the fluorogram are indicated by filled arrowheads and the position of unbound DNA-fragment by an open arrowhead.

endogenous κ gene = assay: Northern blot, endogenous κ gene expression in 70Z/3 cells; format: cell-based, mouse; conditions: PMA 50 ng/ml, LPS 15 μg/ml or Sendai virus, 0 to 20 hr
Description: (§1) FIG. 42C presents results of Northern blot analyses of 70Z/3 cells treated with various inducers.
(§2) RNA preparation and Northern blot analysis were carried out as previously described by Zinn et al., Cell, 34, 865-879 (1983).

endogenous β-IFN mRNA = assay: Northern blot, endogenous β-IFN mRNA in 70Z/3 cells; format: cell-based, mouse; conditions: PMA 50 ng/ml, LPS 15 μg/ml or Sendai virus, 0 to 20 hr
Description: as §1, §2

HeLa cells = conditions: anisomycin at 10; cited from earlier work

For `C[C@@H]1C[C@@H]([C@H](O)CC2CC(=O)NC(=O)C2)C(=O)[C@@H](C)C1` [cycloheximide], the “inhibition of protein synthesis” value (70Z/3 cells) is given as “greater than 95%”.
With `Nc1nc2c(ncn2[C@@H]2O[C@H](COP(=O)(O)OP(=O)(O)OP(=O)(O)O)[C@@H](O)[C@H]2O)c(=O)[nH]1` [GTP] the NF-κB complex formation (NF-κB) was “stimulated”.
In the case of `CCCCCCCCCCCCCC(=O)O[C@@H]1[C@@H](C)[C@@]2(O)[C@@H](C=C(CO)C[C@]3(O)C(=O)C(C)=C[C@@H]23)[C@@H]2C(C)(C)[C@]12OC(C)=O` [PMA, phorbol 12-myristate-13-acetate], the “kB-specific DNA-binding activity found in nuclear extracts” value (NF-KB in 70Z/3 cells) was 80%, the “AP-1 DNA-binding activity in nuclear extracts after TPA-stimulation” value (AP-1 in HeLa cells) was “did not show an increase” and the “endogenous κ gene expression” value (endogenous κ gene) was “activation of the endogenous κ gene”. For the same compound, the “endogenous β-IFN mRNA” value (endogenous β-IFN mRNA) was “not”.
In the case of `COc1ccc(C[C@H]2NC[C@H](O)[C@H]2OC(C)=O)cc1` [anisomycin], the “inhibition of protein synthesis” value (HeLa cells) is listed as “approximately 99%”.
